# Results taken from patent US5326882A, “Chemiluminescent 3-(substituted Adamant-2'-Ylidene) 1,2-dioxetanes” (Tropix, Inc., priority 1992, dated 1994).
# Legend:
# [1] = biological target: T1, alkaline phosphatase (Bos taurus, UniProt P19111); experiment: Half-time to plateau at low alkaline phosphatase concentration (Example XLI); type: biochemical; conditions: 0.4 mM dioxetane at pH 10.0; 31.5° C.; 2.53 × 10^-13 M alkaline phosphatase
# [2] = biological target: T2, alkaline phosphatase-labeled DNA probe (Bos taurus, UniProt P19111); experiment: Alkaline phosphatase-labeled DNA probe detection in membrane with and without BDMQ blocking step (Example XV); conditions: for Detection limit (in picograms DNA) 5. min. exp.: five minute exposure 40 minutes after dioxetane addition; for Detection limit (in picograms DNA) 1 min. exp.: one minute exposure 77 minutes after dioxetane addition
# T2 construct: purchased Tropix, Inc
# T2 sequence (P19111 20-506 limits assumed): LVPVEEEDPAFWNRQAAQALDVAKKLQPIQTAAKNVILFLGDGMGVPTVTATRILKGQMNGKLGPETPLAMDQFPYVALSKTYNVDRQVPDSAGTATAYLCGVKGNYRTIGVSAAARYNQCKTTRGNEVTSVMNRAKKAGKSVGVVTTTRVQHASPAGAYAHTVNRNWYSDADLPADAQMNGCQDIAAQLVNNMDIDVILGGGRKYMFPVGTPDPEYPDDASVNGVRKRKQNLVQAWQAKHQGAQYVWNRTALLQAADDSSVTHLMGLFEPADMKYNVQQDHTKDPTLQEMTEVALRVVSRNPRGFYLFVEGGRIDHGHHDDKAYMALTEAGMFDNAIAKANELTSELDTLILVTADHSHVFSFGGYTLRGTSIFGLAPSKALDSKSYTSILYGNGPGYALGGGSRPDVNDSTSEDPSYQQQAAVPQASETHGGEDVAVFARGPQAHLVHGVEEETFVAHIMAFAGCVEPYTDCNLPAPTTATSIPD
# T2 sequence (P02701 25-152 partner): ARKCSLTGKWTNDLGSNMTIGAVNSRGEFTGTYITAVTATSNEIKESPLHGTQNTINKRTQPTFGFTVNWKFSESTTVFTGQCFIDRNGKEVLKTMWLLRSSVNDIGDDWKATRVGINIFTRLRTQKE
# Experimental: pBr 322 plasmid (4700 bp) was subjected to a nick translation process using a Trans-Light kit (Tropix, Inc., Bedford, Mass.) to generate a mixture of biotinylated single stranded polynucleotides of 200-2000 bps in length.
# This mixture was dotted onto a dry BIODYNE A membrane as five parallel columns of dots of the following concentrations:
# The membrane was subjected to ultraviolet irradiation (UVP Mineral Light; UVP, San Gabriel, Calif.) for 3 minutes to fix the DNA to the surface of the membrane, then air dried. Next, the membrane was blocked in 0.2% casein/0.1% Tween 20 detergent in PBS for 1 hour, following which 1/5000 diluted avidin-alkaline phosphatase conjugate (Tropix, Inc.) in 0.2% casein in PBS was added. The membrane was then incubated for 30 minutes, washed three times (for 5 minutes each time) in 0.2% casein/0.1% Tween 20 detergent in PBS and washed once for five minutes in aqueous 0.1M diethanolamine containing 1 mm magnesium chloride and 0.02% sodium azide, pH 10.0 (substrate buffer).
# Next, the five columns of rows of dots 1-5 were individually cut from the membrane ("strips 1-5"), as were the five columns of rows of dots 6-10 ("strips 6-10"). Strips 1-5 were washed with substrate buffer for 30 minutes. Strips 6-10 were blocked in 0.1% BDMQ in substrate buffer for 30 minutes. Both sets of strips were then incubated for 5 minutes in substrate buffer, then individually incubated for five minutes in aqueous solutions (0.25 mM) of 1,2-dioxetanes as indicated below:
# All strips were then placed in camera luminometers and exposed on Polaroid Type 612 instant black and white film.
# [3] = biological target: T1, alkaline phosphatase; experiment: Chemiluminescent signal-to-noise levels with enhancers (Example XXIV); type: biochemical
# Experimental: The chemiluminescent signal to noise levels were obtained with 2.83×10^-13 M alkaline phosphatase and various R-substituted adamantyl 1,2-dioxetane phosphates in the presence of several enhancers. All measurements were performed in a Berthold LB952T luminometer at room temperature. First, the background chemiluminescence levels (signal in the absence of the enzyme) of each sample (in triplicate) were measured. Each sample consisted of 0.2 μmoles of dioxetane in 0.45 ml of 0.1 M diethanolamine, 1 mM MgCl2, pH 10.0, without or with 1 mg/ml of the indicated enhancer. Tubes were inserted into the luminometer and the luminescence intensity was measured. Next, the tubes were removed from the luminometer and alkaline phosphatase (50 μl containing 1.415×10^-16 moles) was added to each tube, and the luminescence intensity was measured at 5 and 20 minutes after substrate addition. The final concentration of dioxetane in each tube was 0.4 mM.
# All enhancers used at 1 mg/ml in 0.1 M DEA, pH 10. Alkaline phosphatase concentration=2.83×10^-13 M. Measurements performed in a Berthold LB952T Luminometer.
# [4] = biological target: T1, alkaline phosphatase; experiment: Alkaline phosphatase detection limits, Wilj microtiter plate luminometer (Example XXVI); type: biochemical; conditions: 23 MINUTE INCUBATION
# [5] = biological target: T1, alkaline phosphatase; experiment: Detection limits for alkaline phosphatase, Berthold LB952T (Example XXII); type: biochemical; conditions: twice background
# Experimental: (§1) The detection means for alkaline phosphatase with different chemiluminescent 1,2-dioxetane substrates were determined as follows: Duplicates of serial dilutions (1 to 3) of alkaline phosphates were incubated at room temperature with 0.4 mM dioxetane in 0.1 M diethanolamine, 1 mM MgCl2, pH 10.0, containing 1 mg/ml of either of the polymeric enhancers Enhancer 1 or Enhancer 2, in […].
# (§2) Following either a 5 or a 20 minute incubation with a substrate, the chemiluminescence intensity was measured as a 5 second integrated Relative Light Units (RLU) and plotted as in FIG. 10. […] The alkaline phosphatase concentrations at twice background were used as the detection limits in Table 5.
# [6] = biological target: T1, alkaline phosphatase; experiment: Alkaline phosphatase detection limits, LabSystems Luminoskan (Example XXV); type: biochemical
# Experimental: as §1, §2
# The luminometer used in this example was LabSystems Luminoskan microtiter plate reader.
# [7] = biological target: T3, alkaline phosphatase (calf intestine; Biozyme) (Bos taurus, UniProt P19111); experiment: Total dephosphorylation, chemiluminescence decay (Example XIII); type: biochemical; conditions: 30° C., carbonate/bicarbonate buffer
# T3 construct: purchased Biozyme; host or cells: calf intestine
# T3 sequence (P19111 20-506 limits assumed): as the sequence (P19111 20-506 limits assumed) above
# Experimental: A comparison of the total luminescence emission from AMPPD and from the corresponding 1,2-dioxetanes whose adamant-2'-ylidene groups are monosubstituted with hydroxy (A and B isomers), chloro and bromo groups was made by carrying out total dephosphorylation experiments on each of these compounds.
# An aqueous solution of the 1,2-dioxetane (4.0 mm) in 0.05M sodium carbonate/sodium bicarbonate containing 1 mM magnesium chloride was prepared and then equilibrated at 30° C. Ten μl of a 7.64×10M aqueous solution of alkaline phosphatase (calf intestine; Biozyme) was then added, and the chemiluminescence from the resulting solution was recorded using a Turner Model 20E luminometer (Turner Instruments; Sunnyvale, Calif.).
# The rates of chemiluminescence decay for each of the five compounds in question, expressed in relative light units (RLU's) per minute, are given in the following table.
# [8] = enhancer NONE, 5 min, alkaline phosphatase 2.83×10^-13 M
# T1 sequence (P19111 20-506 limits assumed): as above
compound,measurement,setting,value
COC1(c2cccc(OP(=O)(O)O)c2)OOC12C1CC3CC2CC(Br)(C3)C1 (centres unmarked) [BrSPD],HALF-TIME TO PLATEAU (min.) AL LOW ALK PHOS CONCENTRATION,[1],0.70 min
"COC1(c2cccc(OP(=O)(O)O)c2)OOC12C1CC3CC2CC(I)(C3)C1 (single isomer, unassigned) [ISPD-A]",HALF-TIME TO PLATEAU (min.) AL LOW ALK PHOS CONCENTRATION,[1],0.64 min
CCCCOC12CC3CC(C1)C1(OOC1(OC)c1cccc(OP(=O)(O)O)c1)C(C3)C2 (centres unmarked) [n-BuO-AMPPD],HALF-TIME TO PLATEAU (min.) AL LOW ALK PHOS CONCENTRATION,[1],0.71 min
"COC1(c2cccc(OP(=O)(O)O)c2)OOC12C1CC3CC2CC(OC(C)C)(C3)C1 (single isomer, unassigned) [i-PrO-AMPPD-B]",HALF-TIME TO PLATEAU (min.) AL LOW ALK PHOS CONCENTRATION,[1],0.68 min
"COC1(c2cccc(OP(=O)(O)O)c2)OOC12C1CC3CC2CC(I)(C3)C1 (single isomer, unassigned) [ISPD-B]",HALF-TIME TO PLATEAU (min.) AL LOW ALK PHOS CONCENTRATION,[1],0.70 min
"COC1(c2cccc(OP(=O)(O)O)c2)OOC12C1CC3CC2CC(OC(C)C)(C3)C1 (single isomer, unassigned) [i-PrO-AMPPD-A]",HALF-TIME TO PLATEAU (min.) AL LOW ALK PHOS CONCENTRATION,[1],0.93 min
"COC12CC3CC(C1)C1(OOC1(OC)c1cccc(OP(=O)(O)O)c1)C(C3)C2 (single isomer, unassigned) [CH3 O-AMPPD-A]",HALF-TIME TO PLATEAU (min.) AL LOW ALK PHOS CONCENTRATION,[1],0.86 min
"COC1(c2cccc(OP(=O)(O)O)c2)OOC12C1CC3CC2CC(Br)(C3)C1 (centres unmarked) [Br-AMPPD, disodium 3-(4-methoxyspiro-[1,2-dioxetane-3,2'-(5'-bromo)tricyclo[3.3.1.1^3,7]decan]-4-yl) phenyl phosphate]",Detection limit (in picograms DNA) 5. min. exp.,[2]; BDMQ blocking step,0.313 picograms DNA
same,Detection limit (in picograms DNA) 1 min. exp.,[2]; BDMQ blocking step,0.313 picograms DNA
same,Detection limit (in picograms DNA) 5. min. exp.,[2]; no BDMQ blocking step,1.250 picograms DNA
same,Detection limit (in picograms DNA) 1 min. exp.,[2]; no BDMQ blocking step,2.500 picograms DNA
same,chemiluminescent signal-to-noise level,"[3]; EMERALD 1 1 mg/ml, 5 min",149
same,chemiluminescent signal-to-noise level,"[3]; EMERALD 1 1 mg/ml, 20 min",915
same,chemiluminescent signal-to-noise level,"[3]; EMERALD 2 1 mg/ml, 5 min",315
same,chemiluminescent signal-to-noise level,"[3]; EMERALD 2 1 mg/ml, 20 min",503
same,chemiluminescent signal-to-noise level,"[3]; SAPPHIRE 1 1 mg/ml, 5 min",383
same,chemiluminescent signal-to-noise level,"[3]; SAPPHIRE 1 1 mg/ml, 20 min",566
same,chemiluminescent signal-to-noise level,"[3]; SAPPHIRE 2 1 mg/ml, 5 min",688
same,chemiluminescent signal-to-noise level,"[3]; SAPPHIRE 2 1 mg/ml, 20 min",1019
same,chemiluminescent signal-to-noise level,[3]; [8],77
same,chemiluminescent signal-to-noise level,"[3]; enhancer NONE, 20 min",92
same,Alkaline phosphatase detection limit (at 2× background),[4]; SAPPHIRE II,0.00074 pM
same,Alkaline phosphatase detection limit (at 2× background),[4]; SAPPHIRE,0.00021 pM
same,Detection limit for alkaline phosphatase,"[5]; ENHANCER 1, 5 MIN",2.6 femtomoles/liter
same,Detection limit for alkaline phosphatase,"[5]; ENHANCER 1, 20 MIN",0.5 femtomoles/liter
same,Detection limit for alkaline phosphatase,"[5]; ENHANCER 2, 5 MIN",0.4 femtomoles/liter
same,Detection limit for alkaline phosphatase,"[5]; ENHANCER 2, 20 MIN",0.3 femtomoles/liter
same,Alkaline phosphatase detection limit (at 2× background),"[6]; SAPPHIRE II, 5 MINUTE INCUBATION",0.0004 pM
same,Alkaline phosphatase detection limit (at 2× background),"[6]; SAPPHIRE II, 20 MINUTE INCUBATION",0.00039 pM
same,Alkaline phosphatase detection limit (at 2× background),"[6]; SAPPHIRE, 5 MINUTE INCUBATION",0.0027 pM
same,Alkaline phosphatase detection limit (at 2× background),"[6]; SAPPHIRE, 20 MINUTE INCUBATION",0.0004 pM
same,Total Decay Time,[7],40 min
same,Decay Rate I,[7]; RLU's per minute,1.2 RLU's per minute
same,Decay Rate II,[7]; RLU's per minute,0.8 RLU's per minute
"COC1(c2cccc(OP(=O)(O)O)c2)OOC12C1CC3CC2CC(O)(C3)C1 (single isomer, unassigned) [HO-AMPPD]",chemiluminescent signal-to-noise level,"[3]; EMERALD 1 1 mg/ml, 5 min",307
same,chemiluminescent signal-to-noise level,"[3]; EMERALD 1 1 mg/ml, 20 min",386
same,chemiluminescent signal-to-noise level,"[3]; EMERALD 2 1 mg/ml, 5 min",247
same,chemiluminescent signal-to-noise level,"[3]; EMERALD 2 1 mg/ml, 20 min",299
same,chemiluminescent signal-to-noise level,"[3]; SAPPHIRE 1 1 mg/ml, 5 min",229
same,chemiluminescent signal-to-noise level,"[3]; SAPPHIRE 1 1 mg/ml, 20 min",305
same,chemiluminescent signal-to-noise level,"[3]; SAPPHIRE 2 1 mg/ml, 5 min",466
same,chemiluminescent signal-to-noise level,"[3]; SAPPHIRE 2 1 mg/ml, 20 min",643
same,chemiluminescent signal-to-noise level,[3]; [8],55
same,chemiluminescent signal-to-noise level,"[3]; enhancer NONE, 20 min",73
same,Detection limit for alkaline phosphatase,"[5]; ENHANCER 1, 5 MIN",3.0 femtomoles/liter
same,Detection limit for alkaline phosphatase,"[5]; ENHANCER 1, 20 MIN",0.8 femtomoles/liter
same,Detection limit for alkaline phosphatase,"[5]; ENHANCER 2, 5 MIN",1.0 femtomoles/liter
same,Detection limit for alkaline phosphatase,"[5]; ENHANCER 2, 20 MIN",0.3 femtomoles/liter
COC1(c2cccc(OP(=O)(O)O)c2)OOC12C1CC3CC2CC(F)(C3)C1 (centres unmarked) [FSPD],HALF-TIME TO PLATEAU (min.) AL LOW ALK PHOS CONCENTRATION,[1],0.74 min
COC1(c2cccc(OP(=O)(O)O)c2)OOC12C1CC3CC2CC(Cl)(C3)C1 (centres unmarked) [CSPD],HALF-TIME TO PLATEAU (min.) AL LOW ALK PHOS CONCENTRATION,[1],0.71 min
